In patent publication US4962109A, “Insecticidally and acaricidally active pyrimidine esters and intermediates therefor” (Imperial Chemical Industries PLC, priority 1985, dated 1990):

What was measured:
Format in all cases: in vivo
[1] = test system: Tetranychus urticae (spider mites - ova); experiment: Contact test on spider mites - ova (TUe), French bean leaf, mortality; details: 144 h, 500 ppm, contact, 6 days, read-out: TUe grading of mortality
In short: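 Graded read-out: A 80-100%, B 50-79%, C below 50% mortality or knockdown, assessed usually 1-3 days post-treatment. Liquid preparations at 500, 250 or 100 ppm by weight, from acetone solution diluted in water with 0.01% wetting agent, applied to pests and/or their host plant or food medium.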

[2] = test system: Musca domestica (houseflies - adults); experiment: Contact test on houseflies - adults (MD), Cotton wool/sugar, mortality; details: 72 h, 500 ppm, contact, 3 days, read-out: MD grading of mortality
In short: (§1)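 Compound dissolved in acetone, diluted with water containing 0.01% by weight wetting agent to 500, 250 or 100 ppm. Pests held on host plant or foodstuff; pests and/or medium treated. Mortality scored one to three days later as grade A (80-100%), B (50-79%) or C (<50%) mortality or knockdown.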

[3] = test system: Nephotettix cincticeps (green leaf hopper - nymphs); experiment: Contact test on green leaf hopper nymphs (NC), Rice plant, mortality; details: 48 h, 500 ppm, contact, 2 days, read-out: NC grading of mortality
In short: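 Product dissolved in acetone, diluted in water with 0.01% wetting agent to 500, 250 or 100 ppm; nymphs and/or host rice plants treated. Mortality or knockdown assessed 1–3 days later, graded A (80-100%), B (50-79%), C (<50%).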

Myzus persicae (aphids) = experiment: Contact test on aphids (MP), Chinese Cabbage leaf, mortality; details: 72 h, 500 ppm, contact, 3 days, read-out: MP grading of mortality
In short: as §1

[4] = test system: Musca domestica (houseflies - adults); experiment: Knockdown test on houseflies - adults (MD/KD), Cotton wool/sugar; details: 500 ppm, 4 hours, read-out: MD/KD grading of knockdown
In short: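 Adult houseflies exposed to the compound at 500, 250 or 100 ppm in acetone/water with 0.01% wetting agent, on a cotton wool/sugar medium. Knockdown and mortality assessed, graded A (80-100%), B (50-79%) or C (<50%).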

[5] = test system: Spodoptera exigua (lesser army worm - larvae); experiment: Residual test on lesser army worm larvae (SP), Cotton leaf, mortality; details: 48 h, 500 ppm, residual, 2 days, read-out: SP grading of mortality
In short: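 Product dissolved in acetone and diluted in water with 0.01% wetting agent to 500, 250 or 100 ppm; larvae and/or cotton leaf host treated. Mortality or knockdown scored one to three days later and graded A (80-100%), B (50-79%) or C (<50%).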

[6] = test system: Blattella germanica (cockroach nymphs); experiment: Contact test on cockroach nymphs (BG/C), Plastic pot, mortality; details: 48 h, 500 ppm, contact, 2 days, read-out: BG/C grading of mortality
In short: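 Cockroach nymphs and/or their medium were treated with aqueous preparations at 500, 250 or 100 ppm (acetone solution diluted in water with 0.01% Lissapol NX wetting agent). Mortality or knockdown was assessed typically 1–3 days later and graded A (80–100%), B (50–79%) or C (<50%).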

[7] = test system: Heliothis virescens (tobacco budworm - larvae); experiment: Residual test on tobacco budworm larvae (HV), Cotton leaf, mortality; details: 48 h, read-out: HV grading of mortality
In short: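 Product in acetone diluted with water containing 0.01% Lissapol NX, at 500, 250 or 100 ppm; pests and/or host medium (here cotton leaf) treated. Mortality scored one to three days later, graded A (80-100%), B (50-79%), C (<50%).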

[8] = test system: Tetranychus urticae (spider mites - adult); experiment: Contact test on spider mites - adult (TUa), French bean leaf, mortality; details: 72 h, 500 ppm, contact, 3 days, read-out: TUa grading of mortality
In short: as §1

[9] = test system: Diabrotica balteata (rootworm larvae); experiment: Residual test on rootworm larvae (DB), Filter paper/maize seed, mortality; details: 48 h, 500 ppm, residual, 2 days, read-out: DB grading of mortality
In short: as §1

CCOC(=O)c1c(F)c(F)c(COC(=O)C(c2cnc(C(C)(C)C)nc2)C(C)(C)C)c(F)c1F (racemic) [Compound 170]
80 to 100%: mortality at 500 ppm [5] | mortality at 500 ppm [8]
50 to 79%: mortality at 500 ppm [3] | pest or weed control at 500 ppm [4]
< 50%: mortality at 500 ppm [1] | mortality at 500 ppm [2] | mortality at 500 ppm (Myzus persicae (aphids)) | mortality at 500 ppm [6] | mortality at 500 ppm [7] | mortality at 500 ppm [9]

CC(=O)OCc1c(F)c(F)c(COC(=O)C(c2cnc(C(C)(C)C)nc2)C(C)(C)C)c(F)c1F (racemic) [Compound 166, 2,3,5,6-tetrafluoro-4-(acetyloxymethyl)benzyl (RS)-2-[2-(1,1-dimethylethyl)pyrimidin-5-yl]-3,3-dimethylbutanoate]
< 50%: mortality at 500 ppm [2] | pest or weed control at 500 ppm [4] | mortality at 500 ppm [6] | mortality at 500 ppm [7]
80 to 100%: mortality at 500 ppm [1] | mortality at 500 ppm (Myzus persicae (aphids)) | mortality at 500 ppm [5] | mortality at 500 ppm [8] | mortality at 500 ppm [9]
50 to 79%: mortality at 500 ppm [3]

C=C(C)C(C(=O)OCc1c(F)c(F)c(COC)c(F)c1F)c1cnc(C(C)(C)C)nc1 (racemic) [Compound 202, 2,3,5,6-tetrafluoro-4-(methoxymethyl)benzyl (RS)-2-[2-(1,1-dimethylethyl)pyrimidin-5-yl]-3-methylbut-3-enoate]
80 to 100%: mortality at 500 ppm [3] | mortality at 500 ppm (Myzus persicae (aphids)) | pest or weed control at 500 ppm [4] | mortality at 500 ppm [5] | mortality at 500 ppm [8]
< 50%: mortality at 500 ppm [1] | mortality at 500 ppm [2] | mortality at 500 ppm [6] | mortality at 500 ppm [9]
50 to 79%: mortality at 500 ppm [7]

CN(C)c1ncc(C(C(=O)OCc2ccc(F)c(Oc3ccccc3)c2)C(C)(C)C)cn1 (racemic) [Compound 200, 4-fluoro-3-phenoxybenzyl (RS)-2-[2-(N,N-dimethylamino)pyrimidin-5-yl]-3,3-dimethylbutanoate]
< 50%: mortality at 500 ppm [1] | mortality at 500 ppm [2] | mortality at 500 ppm [6] | mortality at 500 ppm [9]
80 to 100%: mortality at 500 ppm [3] | mortality at 500 ppm (Myzus persicae (aphids)) | pest or weed control at 500 ppm [4] | mortality at 500 ppm [5] | mortality at 500 ppm [7] | mortality at 500 ppm [8]

CSc1c(F)c(F)c(COC(=O)C(c2cnc(C(C)(C)C)nc2)C(C)(C)C)c(F)c1F (racemic) [Compound 183]
< 50%: mortality at 500 ppm [1] | mortality at 500 ppm (Myzus persicae (aphids)) | mortality at 500 ppm [6] | mortality at 500 ppm [9]
80 to 100%: mortality at 500 ppm [2] | mortality at 500 ppm [3] | pest or weed control at 500 ppm [4] | mortality at 500 ppm [5] | mortality at 500 ppm [7] | mortality at 500 ppm [8]

CC(C)(C)c1ncc(C(C(=O)OCc2c(F)c(F)c(CO)c(F)c2F)C(C)(C)C)cn1 (racemic) [Compound 164, 4-(hydroxymethyl)-2,3,5,6-tetrafluorobenzyl (RS)-2-[2-(1,1-dimethylethyl)pyrimidin-5-yl]-3,3-dimethylbutanoate]
80 to 100%: pest or weed control at 500 ppm [4] | mortality at 500 ppm [5] | mortality at 500 ppm [8]
50 to 79%: mortality at 500 ppm (Myzus persicae (aphids)) | mortality at 500 ppm [7]
< 50%: mortality at 500 ppm [1] | mortality at 500 ppm [2] | mortality at 500 ppm [3] | mortality at 500 ppm [6] | mortality at 500 ppm [9]

CC(C)c1ncc(C(C(=O)OCc2ccc(F)c(Oc3ccccc3)c2)C(C)(C)C)cn1 (racemic) [Compound 197, 4-fluoro-3-phenoxybenzyl (RS)-2-[2-(1-methylethyl)pyrimidin-5-yl]-3,3-dimethylbutanoate]
< 50%: mortality at 500 ppm [2] | mortality at 500 ppm [6]
80 to 100%: mortality at 500 ppm [1] | mortality at 500 ppm [3] | mortality at 500 ppm (Myzus persicae (aphids)) | pest or weed control at 500 ppm [4] | mortality at 500 ppm [5] | mortality at 500 ppm [7] | mortality at 500 ppm [8] | mortality at 500 ppm [9]

C[C@@H](OC(=O)[C@@H](c1cnc(C(C)(C)C)nc1)C(C)(C)C)c1cccc(Oc2ccccc2)n1 (racemic) [Compound 11, (RS)-1-(6-phenoxypyrid-2-yl)ethyl (RS)-2-[2-(1,1-dimethylethyl)pyrimidin-5-yl]-3,3-dimethylbutanoate]
< 50%: mortality at 500 ppm [6]
80 to 100%: mortality at 500 ppm [1] | mortality at 500 ppm [2] | mortality at 500 ppm [3] | mortality at 500 ppm (Myzus persicae (aphids)) | pest or weed control at 500 ppm [4] | mortality at 500 ppm [5] | mortality at 500 ppm [7] | mortality at 500 ppm [8] | mortality at 500 ppm [9]

CSCc1c(F)c(F)c(COC(=O)C(c2cnc(C(C)(C)C)nc2)C(C)(C)C)c(F)c1F (racemic) [Compound 169, 4-(methylthiomethyl)-2,3,5,6-tetrafluorobenzyl (RS)-2-[2-(1,1-dimethylethyl)pyrimidin-5-yl]-3,3-dimethylbutanoate]
80 to 100%: mortality at 500 ppm [1] | mortality at 500 ppm [2] | mortality at 500 ppm [3] | mortality at 500 ppm (Myzus persicae (aphids)) | pest or weed control at 500 ppm [4] | mortality at 500 ppm [5] | mortality at 500 ppm [8]
< 50%: mortality at 500 ppm [6] | mortality at 500 ppm [7] | mortality at 500 ppm [9]

CC(C)(C)c1ncc(C(C(=O)OCc2c(F)cccc2Cl)C(C)(C)C)cn1 (racemic) [Compound 26, 2-chloro-6-fluorobenzyl (RS)-2-[2-(1,1-dimethylethyl)pyrimidin-5-yl]-3,3-dimethylbutanoate]
80 to 100%: mortality at 500 ppm [1] | mortality at 500 ppm [2] | mortality at 500 ppm [3] | pest or weed control at 500 ppm [4] | mortality at 500 ppm [5] | mortality at 500 ppm [8] | mortality at 500 ppm [9]
< 50%: mortality at 500 ppm [6] | mortality at 500 ppm [7]
50 to 79%: mortality at 500 ppm (Myzus persicae (aphids))

C#CCSCc1c(F)c(F)c(COC(=O)C(c2cnc(C(C)(C)C)nc2)C(C)(C)C)c(F)c1F (racemic) [Compound 220]
50 to 79%: mortality at 500 ppm [5] | mortality at 500 ppm [9]
< 50%: mortality at 500 ppm [1] | mortality at 500 ppm [6] | mortality at 500 ppm [7]
80 to 100%: mortality at 500 ppm [2] | mortality at 500 ppm [3] | mortality at 500 ppm (Myzus persicae (aphids)) | pest or weed control at 500 ppm [4] | mortality at 500 ppm [8]

CC(C)(C)c1ncc(C(C(=O)OCc2c(F)c(F)c(CC3CC3)c(F)c2F)C(C)(C)C)cn1 (racemic) [Compound 179, 4-(cyclopropylmethyl)-2,3,5,6-tetrafluorobenzyl (RS)-2-[2-(1,1-dimethylethyl)pyrimidin-5-yl]-3,3-dimethylbutanoate]
80 to 100%: mortality at 500 ppm [3] | mortality at 500 ppm (Myzus persicae (aphids)) | mortality at 500 ppm [8]
< 50%: mortality at 500 ppm [1] | mortality at 500 ppm [2] | pest or weed control at 500 ppm [4] | mortality at 500 ppm [5] | mortality at 500 ppm [6] | mortality at 500 ppm [7] | mortality at 500 ppm [9]

CCC(C)(C)c1ncc(C(C(=O)OCc2ccc(F)c(Oc3ccccc3)c2)C(C)(C)C)cn1 (racemic) [Compound 68, 4-fluoro-3-phenoxybenzyl (RS)-2-[2-(1,1-dimethylpropyl)pyrimidin-5-yl]-3,3-dimethylbutanoate]
80 to 100%: mortality at 500 ppm [3] | mortality at 500 ppm (Myzus persicae (aphids)) | mortality at 500 ppm [7] | mortality at 500 ppm [8]
< 50%: mortality at 500 ppm [1] | mortality at 500 ppm [2] | pest or weed control at 500 ppm [4] | mortality at 500 ppm [6] | mortality at 500 ppm [9]
50 to 79%: mortality at 500 ppm [5]
